According to patent US10179143B2, “Anti-viral azide containing compounds” (LIFE TECHNOLOGIES CORPORATION, priority 2010, dated 2019):

What was measured:
[1] = tested on: Nuclear-GFP BacMam 2.0 Virus; test: Infectivity of PTM analog-labeled Nuclear-GFP BacMam 2.0 virus in U2-OS cells (nuclear-GFP expression); assay type: cell-based, baculovirus; settings: BacMam virus labeled in Sf9 insect cells with 50 μM analog for 4 days; 20 or 50 uL virus on U2-OS cells overnight; FIG. 5
Description: Inhibition of insect cell baculovirus infectivity with azido fatty acid analogs: The BacMam system uses a modified insect cell virus (baculovirus) as a vehicle to efficiently deliver and express genes in mammalian cells. A Nuclear-GFP BacMam 2.0 expression system (Invitrogen, C10602) was used as a model to determine if PTM analog labeling of the virus would affect mammalian cell infectivity. Viruses were labeled with various PTM analogs and used to infect mammalian cells. Infectivity was determined by the expression of nuclear-GFP, as viral entry into the cell is required for expression of GFP protein. […]
Characterization of BacMam virus production: To verify, quantitate, and normalize the amount of enriched viruses obtained from insect cell supernatants, samples of each virus were lysed in SDS sample preparation buffer (SPB), sonicated with a probe tip sonicator, and heated at 90C to completely dissolve the viral proteins. Viral protein concentrations of the lysates were then determined. […]
Mammalian cell infection protocol: To determine if the PTM analog-labeled viruses retain the ability to infect mammalian cells, 50,000 U2-OS cells (human osteosarcoma cell line) were plated onto a 6 well-chamber glass bottom plate. […] The following day cells were imaged on AMG EVOS fluorescence microscope at 10× or 20× magnification using both white light and GFP filters (FIG. 5). […]

[2] = tested on: HIV; test: Luciferase reporter assay of infectivity of azide-labeled HIV on TZM/BI reporter cells; assay type: cell-based, HIVNL4-3; settings: virus produced in CEMx174 cells spiked with the compound (fatty acids 50-100 μM, sugars 20-40 μM); normalized to p24; 12 hours on TZM/BI; single cycle replication system; FIGS. 3 and 4
Protocol: CEMx174 cells were transfected with HIVNL4-3 in a T-150 flask and the virus production was monitored by reverse transcriptase activity until peak virus production occurred (usually 7 to 9 days post transfection). Prior to transfection, the CEMx174 cells were spiked with the following azide-modified biomolecules: 15-azidopentadecanoic acid (50-100 μM), 12-azidododecanoic acid (50-100 μM), tetraacetylated N-azidoacetylgalactosamine (20-40 μM), and tetraacetylated N-azidoacetyl-D-mannosamine (20-40 μM).
Labeled virus was also obtained from the transfected cells. More specifically, virus-containing supernatants were collected and virus was purified through 20% sucrose as previously described (Graham, D.R. et al., Proteomics 2008, 8:4919-30). The purified virus was then mixed with the CLICK-IT® detection reagent, tetramethylrhodamine (TAMRA) alkyne and the CLICK-IT® Protein Reaction Buffer Kit (Invitrogen, Carlsbad, Calif.). Virus samples were run on a one-dimensional gel to reveal azide-labeled viral proteins (FIG. 2). […]
To examine the effect of the azide-modified biomolecules on the innate biology of the virus, the azide-labeled virus from the transfected cells was isolated and tested in cell infection studies. […] Viral infectivity was determined by measuring cellular luciferase activities with two different luciferase reagents.

Structure (SMILES) | nuclear-GFP expression in U2-OS cells (viral entry) [1] | impact on the infectivity of the virus (cellular luciferase activities) [2]
[N-]=[N+]=NCCCCCCCCCCCC(=O)O [12-azidododecanoic acid] | no nuclear-GFP expression | profound impact on the infectivity of the virus
[N-]=[N+]=NCCCCCCCCCCCCCCC(=O)O [15-azidopentadecanoic acid] | no nuclear-GFP expression | –
